These are literature values, as cited in patent US20030215409A1, “Process for the treatment of human keratinous fibers” (L'OREAL, priority 2002, published 2003).

This data set deals with hair. The following applies: hair densification, current compositions.

With `Nc1ccnc(N)[n+]1[O-]` [aminexil], the “time after which the user begins to have a benefit” value is 1.5 months.
